This passage reports inhibition results from patent US20140243334A1, “SUBSTITUTED HYDOXAMIC ACIDS AND USES THEREOF” (Millennium Pharmaceuticals, Inc., priority 2010, published 2014).

For the assay, the target named is T1, purified human HDAC6 (Homo sapiens, UniProt Q9UBN7).
T1 construct: purchased BPS Bioscience 5006
T1 sequence (Q9UBN7 1-1215): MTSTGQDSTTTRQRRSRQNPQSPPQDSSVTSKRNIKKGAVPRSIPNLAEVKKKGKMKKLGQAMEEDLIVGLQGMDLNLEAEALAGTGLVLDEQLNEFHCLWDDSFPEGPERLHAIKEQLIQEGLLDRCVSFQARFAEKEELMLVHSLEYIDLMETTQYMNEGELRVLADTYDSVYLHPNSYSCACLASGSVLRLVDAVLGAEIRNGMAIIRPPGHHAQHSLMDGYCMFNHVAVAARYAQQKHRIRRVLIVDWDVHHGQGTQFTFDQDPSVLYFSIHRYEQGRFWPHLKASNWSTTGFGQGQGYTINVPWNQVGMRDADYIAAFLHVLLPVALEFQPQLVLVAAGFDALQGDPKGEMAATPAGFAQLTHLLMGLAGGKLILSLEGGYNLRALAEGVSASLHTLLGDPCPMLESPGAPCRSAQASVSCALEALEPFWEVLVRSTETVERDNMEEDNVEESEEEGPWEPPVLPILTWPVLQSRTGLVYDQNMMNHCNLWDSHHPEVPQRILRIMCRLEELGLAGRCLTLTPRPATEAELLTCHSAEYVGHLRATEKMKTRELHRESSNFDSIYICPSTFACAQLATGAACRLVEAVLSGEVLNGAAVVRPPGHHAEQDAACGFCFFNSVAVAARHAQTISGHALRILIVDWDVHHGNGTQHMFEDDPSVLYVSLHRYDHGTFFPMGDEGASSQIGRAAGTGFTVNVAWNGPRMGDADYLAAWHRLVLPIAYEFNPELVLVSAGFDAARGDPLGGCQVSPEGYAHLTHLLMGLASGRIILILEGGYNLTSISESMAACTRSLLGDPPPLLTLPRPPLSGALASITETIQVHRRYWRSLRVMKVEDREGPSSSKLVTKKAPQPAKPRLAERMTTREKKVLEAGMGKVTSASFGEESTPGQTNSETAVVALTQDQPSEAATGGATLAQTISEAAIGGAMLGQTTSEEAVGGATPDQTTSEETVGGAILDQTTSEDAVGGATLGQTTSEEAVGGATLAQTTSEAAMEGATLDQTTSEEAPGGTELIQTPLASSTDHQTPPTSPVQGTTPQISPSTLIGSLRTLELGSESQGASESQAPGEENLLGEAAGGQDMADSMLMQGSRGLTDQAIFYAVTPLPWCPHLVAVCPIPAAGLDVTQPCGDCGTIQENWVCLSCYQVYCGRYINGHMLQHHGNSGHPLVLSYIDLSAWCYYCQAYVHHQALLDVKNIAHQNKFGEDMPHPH
As to the kind of experiment: HDAC6 Enzyme Assay. It is filed as biochemical. The settings on record: HDAC6 inhibition at a compound concentration of 0.412 μM; read-out: Percent Inhibition at 0.412 μM. As for the experimental part:
To measure the inhibition of HDAC6 activity, purified human HDAC6 (BPS Bioscience; Cat. No. 5006) is incubated with substrate Ac-Arg-Gly-Lys(Ac)-AMC peptide (Bachem Biosciences; Cat. No. I-1925) for 1 hour at 30° C. in the presence of test compounds or vehicle DMSO control. The reaction is stopped with the HDAC inhibitor trichostatin A (Sigma; Cat. No. T8552) and the amount of Arg-Gly-Lys-AMC generated is quantitated by digestion with trypsin (Sigma; Cat. No. T1426) and subsequent measurement of the amount of AMC released using a fluorescent plate reader (Pherastar; BMG Technologies) set at Ex 340 nm and Em 460 nm. Concentration response curves are generated by calculating the fluorescence increase in test compound-treated samples relative to DMSO-treated controls, and enzyme inhibition (IC50) values are determined from those curves.
For the molecule `O=C(NO)C1CCc2ccc(-c3cccnc3)cc2C1` (centres unmarked) [Compound I-60, N-hydroxy-7-pyridin-3-yl-1,2,3,4-tetrahydronaphthalene-2-carboxamide], the inhibition at 0.412 µM was determined as 75%.

Consider `O=C(NO)C1CCc2ccc(-c3cc4ccccc4s3)cc2C1` (centres unmarked) [Compound I-61, 7-(1-benzothien-2-yl)-N-hydroxy-1,2,3,4-tetrahydronaphthalene-2-carboxamide], for which the inhibition at 0.412 µM stood at 73%.

`CC(C)(C)OC(=O)Nc1cccc(-c2ccc3c(c2)CC(C(=O)NO)CC3)c1` (centres unmarked) [Compound I-62, tert-butyl (3-{7-[(hydroxyamino)carbonyl]-5,6,7,8-tetrahydronaphthalen-2-yl}phenyl)carbamate]: the inhibition at 0.412 µM turned out to be 82%.

Turning to `CC(C)(C)C(=O)Nc1cccc(-c2ccc3c(c2)CC(C(=O)NO)CC3)c1` (centres unmarked) [Compound I-63, 7-{3-[(2,2-dimethylpropanoyl)amino]phenyl}-N-hydroxy-1,2,3,4-tetrahydronaphthalene-2-carboxamide], the inhibition at 0.412 µM was 90%.

With `O=C(NO)C1CCc2ccc(-c3cccc(NC(=O)C4CC4)c3)cc2C1` (centres unmarked) [Compound I-64, 7-{3-[(cyclopropylcarbonyl)amino]phenyl}-N-hydroxy-1,2,3,4-tetrahydronaphthalene-2-carboxamide], the inhibition at 0.412 µM came out at 90%.

With `O=C(NO)C1CCc2cc(-c3ccc(Cl)cc3)ccc2C1` (centres unmarked) [Compound I-65, 6-(4-chlorophenyl)-N-hydroxy-1,2,3,4-tetrahydronaphthalene-2-carboxamide], the inhibition at 0.412 µM is 68%.

As for `O=C(NO)C1CCc2cc(-c3ccncc3)ccc2C1` (centres unmarked) [Compound I-66, N-hydroxy-6-pyridin-4-yl-1,2,3,4-tetrahydronaphthalene-2-carboxamide], the inhibition at 0.412 µM was 80%.

With `COc1cccc(-c2ccc3c(c2)CC(C(=O)NO)CC3)c1` (centres unmarked) [Compound I-67, N-hydroxy-7-(3-methoxyphenyl)-1,2,3,4-tetrahydronaphthalene-2-carboxamide], the inhibition at 0.412 µM came to 81%.

For `COc1ccccc1-c1ccc2c(c1)CC(C(=O)NO)CC2` (centres unmarked) [Compound I-68, N-hydroxy-7-(2-methoxyphenyl)-1,2,3,4-tetrahydronaphthalene-2-carboxamide], the inhibition at 0.412 µM was 76%.

For the molecule `COc1ccc(-c2ccc3c(c2)CC(C(=O)NO)CC3)cc1` (centres unmarked) [Compound I-69, N-hydroxy-7-(4-methoxyphenyl)-1,2,3,4-tetrahydronaphthalene-2-carboxamide], the inhibition at 0.412 µM amounted to 79%.

Consider `O=C(NO)C1CCc2ccc(-c3ccccc3Cl)cc2C1` (centres unmarked) [Compound I-70, 7-(2-chlorophenyl)-N-hydroxy-1,2,3,4-tetrahydronaphthalene-2-carboxamide], for which the inhibition at 0.412 µM was 78%.

As to `O=C(NO)C1CCc2ccc(-c3ccc(Cl)cc3)cc2C1` (centres unmarked) [Compound I-71, 7-(4-chlorophenyl)-N-hydroxy-1,2,3,4-tetrahydronaphthalene-2-carboxamide], the inhibition at 0.412 µM stood at 74%.

Take `O=C(NO)C1CCc2ccc(-c3ccc4cc[nH]c4c3)cc2C1` (centres unmarked) [Compound I-72, N-hydroxy-7-(1H-indol-6-yl)-1,2,3,4-tetrahydronaphthalene-2-carboxamide]: the inhibition at 0.412 µM was 87%.

Turning to `O=C(NO)C1CCc2ccc(Oc3ccc(NCc4ccc(Cl)cc4)cc3)cc2C1` (centres unmarked) [Compound I-73, 7-{4-[(4-chlorobenzyl)amino]phenoxy}-N-hydroxy-1,2,3,4-tetrahydronaphthalene-2-carboxamide], the inhibition at 0.412 µM turned out to be 64%.

As to `CC(=O)Nc1cccc(-c2ccc3c(c2)CCC(C(=O)NO)C3)c1` (centres unmarked) [Compound I-74, 6-[3-(acetylamino)phenyl]-N-hydroxy-1,2,3,4-tetrahydronaphthalene-2-carboxamide], the inhibition at 0.412 µM amounted to 85%.

As for `O=C(NO)C1CCc2ccc(-c3ccc4[nH]ccc4c3)cc2C1` (centres unmarked) [Compound I-75, N-hydroxy-7-(1H-indol-5-yl)-1,2,3,4-tetrahydronaphthalene-2-carboxamide], the inhibition at 0.412 µM is 77%.

Consider `COc1ccc2c(c1)CC(C)(C(=O)NO)CC2` (centres unmarked) [Compound I-76, N-hydroxy-7-methoxy-2-methyl-1,2,3,4-tetrahydronaphthalene-2-carboxamide], for which the inhibition at 0.412 µM is 0%.

For the molecule `O=C(NO)C1CCc2cc(NC(=O)C3CC3)ccc2C1` (centres unmarked) [Compound I-77, 6-[(cyclopropylcarbonyl)amino]-N-hydroxy-1,2,3,4-tetrahydronaphthalene-2-carboxamide], the inhibition at 0.412 µM worked out at 68%.

`O=C(NO)C1CCc2cc(Nc3ccc(Cl)cc3)ccc2C1` (centres unmarked) [Compound I-78, 6-[(4-chlorophenyl)amino]-N-hydroxy-1,2,3,4-tetrahydronaphthalene-2-carboxamide]: the inhibition at 0.412 µM amounted to 48%.

`COc1cccc(Nc2ccc3c(c2)CCC(C(=O)NO)C3)c1` (centres unmarked) [Compound I-79, N-hydroxy-6-[(3-methoxyphenyl)amino]-1,2,3,4-tetrahydronaphthalene-2-carboxamide]: the inhibition at 0.412 µM turned out to be 43%.

Regarding `COc1ccc(Nc2ccc3c(c2)CCC(C(=O)NO)C3)cc1` (centres unmarked) [Compound I-80, N-hydroxy-6-[(4-methoxyphenyl)amino]-1,2,3,4-tetrahydronaphthalene-2-carboxamide], the inhibition at 0.412 µM was found to be 43%.

As to `O=C(NO)C1CCc2ccc(-c3ccc4[nH]cnc4c3)cc2C1` (centres unmarked) [Compound I-81, 7-(1H-benzimidazol-5-yl)-N-hydroxy-1,2,3,4-tetrahydronaphthalene-2-carboxamide], the inhibition at 0.412 µM was determined as 89%.

Take `O=C(NO)C1CCc2ccc(-c3c[nH]c4ccccc34)cc2C1` (centres unmarked) [Compound I-82, N-hydroxy-7-(1H-indol-3-yl)-1,2,3,4-tetrahydronaphthalene-2-carboxamide]: the inhibition at 0.412 µM turned out to be 83%.

For `O=C(NO)C1CCc2cc(Nc3ccccc3Cl)ccc2C1` (centres unmarked) [Compound I-83, 6-[(2-chlorophenyl)amino]-N-hydroxy-1,2,3,4-tetrahydronaphthalene-2-carboxamide], the inhibition at 0.412 µM is 37%.

For `COc1ccccc1Nc1ccc2c(c1)CCC(C(=O)NO)C2` (centres unmarked) [Compound I-84, N-hydroxy-6-[(2-methoxyphenyl)amino]-1,2,3,4-tetrahydronaphthalene-2-carboxamide], the inhibition at 0.412 µM came to 38%.

For `CC1(C(=O)Nc2ccc3c(c2)CCC(C(=O)NO)C3)CCNCC1` (centres unmarked) [Compound I-85, N-{6-[(hydroxyamino)carbonyl]-5,6,7,8-tetrahydronaphthalen-2-yl}-4-methylpiperidine-4-carboxamide], the inhibition at 0.412 µM was 74%.

`O=C(NO)C1CCc2ccc(-c3ccc4ccccc4c3)cc2C1` (centres unmarked) [Compound I-86, N-hydroxy-5,6,7,8-tetrahydro-2,2′-binaphthalene-7-carboxamide]: the inhibition at 0.412 µM was 73%.

Turning to `O=C(NO)C1CCc2ccc(-c3cnc4[nH]ccc4c3)cc2C1` (centres unmarked) [Compound I-87, N-hydroxy-7-(1H-pyrrolo[2,3-b]pyridin-5-yl)-1,2,3,4-tetrahydronaphthalene-2-carboxamide], the inhibition at 0.412 µM was 85%.

In the case of `Cc1nnc(-c2cccc(-c3ccc4c(c3)CC(C(=O)NO)CC4)c2)o1` (centres unmarked) [Compound I-88, N-hydroxy-7-[3-(5-methyl-1,3,4-oxadiazol-2-yl)phenyl]-1,2,3,4-tetrahydronaphthalene-2-carboxamide], the inhibition at 0.412 µM amounted to 79%.

A word on the inhibition: it is how much of the control response was suppressed.
